In US8901087B2, “Selective glycosidase inhibitors and uses thereof” (priority 2010, dated 2014):
pEC50, pKi: −log10 of the molar value.

molecular target: O-GlcNAcase (Rattus norvegicus, UniProt Q8VIJ5); assay: Cell-based ELISA for cellular activity of O-GlcNAcase inhibitors (O-GlcNAcylated protein level, RL-2 antibody); details: increase in O-GlcNAcylated protein, cells treated 24 hours, RL-2 antibody ELISA
Text: Assay for Determination of Cellular Activity for Compounds that Inhibit O-GlcNAcase Activity
Inhibition of O-GlcNAcase, which removes O-GlcNAc from cellular proteins, results in an increase in the level of O-GlcNAcylated protein in cells. An increase in O-GlcNAcylated protein can be measured by an antibody, such as RL-2, that binds to O-GlcNAcylated protein. The amount of O-GlcNAcylated protein:RL2 antibody interaction can be measured by enzyme linked immunosorbant assay (ELISA) procedures.

O-GlcNAcase, sequence (Q8VIJ5 whole entry, looked up): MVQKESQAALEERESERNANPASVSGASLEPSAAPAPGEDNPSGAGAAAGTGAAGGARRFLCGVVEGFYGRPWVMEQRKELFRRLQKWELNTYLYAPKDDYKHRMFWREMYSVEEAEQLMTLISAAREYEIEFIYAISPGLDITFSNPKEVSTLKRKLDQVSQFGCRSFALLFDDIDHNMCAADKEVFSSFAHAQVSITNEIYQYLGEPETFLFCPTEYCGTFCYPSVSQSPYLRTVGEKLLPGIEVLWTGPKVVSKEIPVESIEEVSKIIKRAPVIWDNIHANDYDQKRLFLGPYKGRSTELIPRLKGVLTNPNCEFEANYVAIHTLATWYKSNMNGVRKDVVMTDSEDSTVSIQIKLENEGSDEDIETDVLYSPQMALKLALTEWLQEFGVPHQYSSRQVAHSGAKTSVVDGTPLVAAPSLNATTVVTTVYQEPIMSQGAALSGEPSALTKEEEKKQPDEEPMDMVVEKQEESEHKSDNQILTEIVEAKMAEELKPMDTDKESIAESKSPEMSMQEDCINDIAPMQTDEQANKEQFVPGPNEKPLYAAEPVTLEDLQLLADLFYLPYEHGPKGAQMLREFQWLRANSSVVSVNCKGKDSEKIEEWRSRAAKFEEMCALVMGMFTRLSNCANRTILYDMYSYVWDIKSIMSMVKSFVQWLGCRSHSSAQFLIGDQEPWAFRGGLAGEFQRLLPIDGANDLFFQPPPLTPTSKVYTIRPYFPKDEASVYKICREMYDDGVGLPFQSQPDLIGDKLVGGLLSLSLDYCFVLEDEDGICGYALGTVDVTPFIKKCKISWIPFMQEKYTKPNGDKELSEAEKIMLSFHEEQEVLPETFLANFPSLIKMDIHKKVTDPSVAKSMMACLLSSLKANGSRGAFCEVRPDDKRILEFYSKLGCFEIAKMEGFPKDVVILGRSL

Row | Structure (SMILES) | pEC50
1 | CN(C)C1=N[C@@H]2[C@@H](OCc3ccccc3)[C@H](COCc3ccccc3)[C@@H](C(O)C3SCCCS3)O[C@@H]2S1 (stereo partly shown) [Example 96] | 8.34

molecular target: human O-GlcNAcase (Homo sapiens (Human), UniProt O60502); assay: Fluorescence-based assay for determination of KI values for inhibition of O-GlcNAcase activity; assay type: biochemical; details: purified human O-GlcNAcase, 4-Methylumbelliferyl N-acetyl-β-D-glucosaminide substrate, pH 7.0, Cheng-Prusoff; read-out: Fluorescence-based hOGA Ki
Sequence (O60502 whole entry): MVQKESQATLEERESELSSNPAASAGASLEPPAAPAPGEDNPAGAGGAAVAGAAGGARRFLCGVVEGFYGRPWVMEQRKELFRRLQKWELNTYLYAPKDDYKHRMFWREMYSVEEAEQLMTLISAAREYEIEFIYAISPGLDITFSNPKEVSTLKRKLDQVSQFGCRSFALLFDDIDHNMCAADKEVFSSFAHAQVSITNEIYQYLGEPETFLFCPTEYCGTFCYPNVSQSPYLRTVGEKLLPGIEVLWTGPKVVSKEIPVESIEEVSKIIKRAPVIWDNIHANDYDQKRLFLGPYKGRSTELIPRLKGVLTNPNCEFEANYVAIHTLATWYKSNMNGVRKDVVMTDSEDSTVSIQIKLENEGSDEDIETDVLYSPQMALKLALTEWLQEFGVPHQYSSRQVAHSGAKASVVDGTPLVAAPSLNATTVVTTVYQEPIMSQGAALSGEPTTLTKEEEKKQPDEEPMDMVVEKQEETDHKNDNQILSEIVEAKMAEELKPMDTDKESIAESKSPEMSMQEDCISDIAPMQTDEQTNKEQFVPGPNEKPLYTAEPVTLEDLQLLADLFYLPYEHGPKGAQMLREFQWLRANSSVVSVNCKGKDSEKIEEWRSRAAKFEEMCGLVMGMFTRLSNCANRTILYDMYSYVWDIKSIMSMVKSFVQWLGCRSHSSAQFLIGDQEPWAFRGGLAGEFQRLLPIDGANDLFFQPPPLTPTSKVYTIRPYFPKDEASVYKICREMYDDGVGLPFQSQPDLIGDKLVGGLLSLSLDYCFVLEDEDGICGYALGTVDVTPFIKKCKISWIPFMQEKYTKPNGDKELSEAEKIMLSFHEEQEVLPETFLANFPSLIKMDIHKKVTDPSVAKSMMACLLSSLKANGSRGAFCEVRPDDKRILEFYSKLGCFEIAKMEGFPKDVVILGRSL
Method: Assay for Determination of KI Values for Inhibition of O-GlcNAcase Activity
Experimental Procedure for Kinetic Analyses
Enzymatic reactions are carried out in a reaction containing 50 mM NaH2PO4, 100 mM NaCl and 0.1% BSA (pH 7.0) using 2 mM 4-Methylumbelliferyl N-acetyl-β-D-glucosaminide dihydrate (Sigma M2133) dissolved in ddH2O, as a substrate. The amount of purified human O-GlcNAcase enzyme used in the reaction is 0.7 nM. Test compound of varying concentrations is added to the enzyme prior to initiation of the reaction. The reaction is performed at room temperature in a 96-well plate and is initiated with the addition of substrate. […] The slope of product production is determined for each concentration of compound tested and plotted, using standard curve fitting algorithms for sigmoidal dose response curves. The values for a four parameter logistic curve fit of the data are determined.

Row | Structure (SMILES) | pKi
2 | CN(C)C1=N[C@@H]2[C@@H](OCc3ccccc3)[C@H](COCc3ccccc3)[C@@H](C(O)C3SCCCS3)O[C@@H]2S1 (stereo partly shown) [Example 96] | 9.72
3 | CCNC1=N[C@@H]2[C@@H](O)[C@H](O)[C@@H]([C@@H](O)CC)O[C@@H]2S1 [Example 105, (3aR,5R,6S,7R,7aR)-2-(ethylamino)-5-((S)-1-hydroxypropyl)-5,6,7,7a-tetrahydro-3aH-pyrano[3,2-d]thiazole-6,7-diol] | 8.47
4 | C[C@H](O)[C@H]1O[C@@H]2SC(NCCF)=N[C@@H]2[C@@H](O)[C@@H]1O [Example 141, (3aR,5R,6S,7R,7aR)-2-(2-Fluoroethylamino)-5-((S)-1-hydroxyethyl)-5,6,7,7a-tetrahydro-3aH-pyrano[3,2-d]thiazole-6,7-diol] | 9.09
5 | CNC1=N[C@@H]2[C@@H](O)[C@H](O)[C@@H](C(C)(O)C(F)(F)F)O[C@@H]2S1 (stereo partly drawn) [Example 159, (3aR,5S,6S,7R,7aR)-2-(methylamino)-5-(1,1,1-trifluoro-2-hydroxypropan-2-yl)-5,6,7,7a-tetrahydro-3aH-pyrano[3,2-d]thiazole-6,7-diol] | 8.90
6 | CNC1=N[C@@H]2[C@@H](O)[C@H](O)[C@@H]([C@@H](O)C(F)F)O[C@@H]2S1 [Example 191, (3aR,5S,6S,7R,7aR)-5-((R)-2,2-difluoro-1-hydroxyethyl)-2-(methylamino)-5,6,7,7a-tetrahydro-3aH-pyrano[3,2-d]thiazole-6,7-diol] | 9.85
7 | O[C@H]1[C@H](O)[C@@H]([C@H](O)C(F)(F)F)O[C@@H]2SC(NCCF)=N[C@H]12 [Example 215, (3aR,5S,6S,7R,7aR)-2-(2-fluoroethylamino)-5-((S)-2,2,2-trifluoro-1-hydroxyethyl)-5,6,7,7a-tetrahydro-3aH-pyrano[3,2-d]thiazole-6,7-diol] | 8.74
